In US5824696A, “Medicaments” (SmithKline Beecham Corporation, priority 1993, dated 1998):
Residue numbers refer to the chain shown, from its start. Read-outs that look alike come from different tables or passages of the source.

Experiments:
[1] = target: T1, angiotensin receptors in human synovium (Homo sapiens, UniProt P30556); test: Inhibition of [125I](Sar1, Ile8)AII binding to human synovium, quantitative receptor autoradiography; set-up: Binding of [125I](Sar1, Ile8) angiotensin II in the presence of antagonist: unit not given here; conditions: for Binding of [125I](Sar1, Ile8) angiotensin II in the presence of DTT: osteoarthritis; for nHill values / Ki: osteoarthritic synovium; for Ki: 0.25 nM [125I](Sar1, Ile8)AII; for Binding of [125I](Sar1, Ile8) angiotensin II in the presence of antagonist: 10 μM antagonist
T1 construct: Human knee synovium was collected at surgery from patients with osteoarthritis or rheumatoid arthritis; from tissue; host or cells: human knee synovium cryostat sections (osteoarthritis, rheumatoid arthritis, chondromalacia patellae)
T1 sequence (P30556 1-359): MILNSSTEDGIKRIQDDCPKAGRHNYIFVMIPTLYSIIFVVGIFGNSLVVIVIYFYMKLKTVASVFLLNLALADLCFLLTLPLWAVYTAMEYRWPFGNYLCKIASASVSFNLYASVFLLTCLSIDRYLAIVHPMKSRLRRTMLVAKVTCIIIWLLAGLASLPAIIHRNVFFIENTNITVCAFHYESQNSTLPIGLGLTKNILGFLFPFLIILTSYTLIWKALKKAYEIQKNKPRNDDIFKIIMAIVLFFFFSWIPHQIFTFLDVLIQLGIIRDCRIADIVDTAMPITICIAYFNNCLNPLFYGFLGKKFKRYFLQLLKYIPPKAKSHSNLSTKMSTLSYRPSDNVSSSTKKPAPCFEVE
Method: Human knee synovium was collected at surgery from patients with osteoarthritis or rheumatoid arthritis undergoing total knee replacement and patients with chondromalacia patellae undergoing carbon fibre resurfacing of articular cartilage. Tissue samples were immediately embedded in Tissue-Tek (Miles Inc., Elkhart, Ind., USA) and frozen to cork mounts in melting isopentane without prior fixation. Specimens were stored at -40° C. until use. […] thick sections were cut in a cryostat and thaw mounted onto Vectabond™ (Vector Laboratories, Peterborough, U.K.) treated slides, air dried and used immediately, or stored at -20° C. with silica gel for up to 5 days until use.
[…] Excess buffer was removed and sections were incubated for 90 minutes with ligand in buffer B (buffer A plus 1% bovine serum albumin). […] Except where stated, incubations were performed at 22° C.
Films were developed in Kodak D9 for 3 minutes at 15° C. […] Synovial structures were identified, where necessary, by comparison of films with tissue sections counterstained with haematoxylin and eosin. Tissue structures (blood vessels, lining cells and regions of subintimal stroma displaying specific binding) were each delineated interactively. Binding was quantified on the 20 blood vessels in each section with the most dense specific binding.
Specific binding was defined as total minus non-specific binding. Characterisation of specific binding was performed on samples of synovium from patients with osteoarthritis.
Kinetic and equilibrium constants were derived from specific binding values by iterative non-linear regression assuming single site models using GraphPAD Inplot4 (San Diego). […] Values for binding inhibition constants (Ki) and HIll coefficients (nHill) were derived by fitting to sigmoid curves.

[2] = target: T2, contractile response to angiotensin II in the isolated rabbit aorta (Oryctolagus cuniculus, UniProt P34976); test: Antagonism of angiotensin II induced vasoconstriction in isolated rabbit aorta; conditions: rabbit thoracic aorta rings, 30-minute incubation, dose ratio method; read-out: Antagonist dissociation constant (KB)
T2 construct: Ring segments are cut from the rabbit thoracic aorta; from tissue; host or cells: rabbit thoracic aorta ring segments
T2 sequence (P34976 1-359): T1 sequence (P30556 1-359) with I2M, V49A, I254V, I270V, R272H, R311K, T349S, A353V
Method: Angiotensin II antagonist activity is assessed by in vitro methods In vitro antagonist activity is determined by the ability of the compounds to compete with ^125 I-angiotensin II for binding to vascular angiotensin II receptors and by their ability to antagonize the contractile response to angiotensin II in the isolated rabbit aorta.
The ability of the compounds to antagonize angiotensin II induced vasoconstriction is examined in the rabbit aorta. Ring segments are cut from the rabbit thoracic aorta and suspended in organ baths containing physiological salt solution. The ring segments are mounted over metal supports and attached to force displacement transducers which are connected to a recorder. Cumulative concentration response curves to angiotensin II are performed in the absence of antagonist or following a 30-minute incubation with antagonist. Antagonist dissociation constants (KB) are calculated by the dose ratio method using the mean effective concentrations. The KB for (E)-3-[2-n-butyl-1-{4-carboxynaphth-1-yl)methyl}-1H-imidazol-5-yl]-2-(2-thienyl)methyl-2-propenoic acid is about 0.15 nM.

[3] = test system: angiotensin receptors in human synovium; test: Guanine nucleotide sensitivity of [125I]AII binding to human synovium; conditions: 1 μM GTPγS

O[C@H](CS)[C@H](O)CS (racemic) [DTT, dithiothreitol]
Inhibition of specific [125I](Sar1, Ile8)AII binding to each structure ([1]; 10 mM DTT): completely inhibited
Binding of [125I](Sar1, Ile8) angiotensin II in the presence of DTT ([1]; blood vessels, 10 mM DTT, total 10.2, nonspecific 3.2): 3.2 (2.9 to 3.5) amol mm^-2
Binding of [125I](Sar1, Ile8) angiotensin II in the presence of DTT ([1]; lining cells, 10 mM DTT, total 5.1, nonspecific 2.1): 2.0 (1.8 to 2.3) amol mm^-2
Binding of [125I](Sar1, Ile8) angiotensin II in the presence of DTT ([1]; stroma, 10 mM DTT, total 2.6, nonspecific 1.7): 1.6 (1.5 to 1.7) amol mm^-2

CCCCc1ncc(/C=C(\Cc2cccs2)C(=O)O)n1Cc1ccc(C(=O)O)c2ccccc12 [(E)-3-[2-n-butyl-1-{4-carboxynaphth-1-yl)methyl}-1H-imidazol-5-yl]-2-(2-thienyl)methyl-2-propenoic acid]
Kb [2]: ~0.15 nM

CCCCc1ncc(/C=C(\Cc2cccs2)C(=O)O)n1Cc1ccc(C(=O)O)cc1 [(E)-3-[2-n-butyl-1-{4-carboxyphenyl)methyl}-1H-imidazol-5-yl]-2-(2-thienyl)methyl-2-propenoic acid]
nHill values ([1]; blood vessels): 1.2
Ki ([1]; blood vessels, read-out: Ki values): 49 nM
Inhibition of binding of [125I](Sar1, Ile8)AII to microvessels, lining cells and stroma ([1]; inflamed human synovium): potently and completely inhibited
nHill values ([1]; lining cells): 0.8
Ki ([1]; lining cells, read-out: Ki values): 60.3 nM
nHill values ([1]; stroma): 0.8
Ki ([1]; stroma, read-out: Ki values): 81.3 nM

Nc1nc2c(ncn2[C@@H]2O[C@H](COP(=O)(O)OP(=O)(O)OP(O)(O)=S)[C@@H](O)[C@H]2O)c(=O)[nH]1 [GTPγS, guanosine 5'-O-(3-thiotriphosphate)]
Inhibition of [125I](Sar1, Ile8)AII binding ([1]; 1 μM GTPγS): did not inhibit
Inhibition of binding of agonist [125I]AII to each structure [3]: levels not significantly different from nonspecific binding

Cc1cc(Cn2cnc3c2C[C@@H](C(=O)O)N(C(=O)C(c2ccccc2)c2ccccc2)C3)ccc1N(C)C [PD123319]
Inhibition of specific [125I](Sar1, Ile8)AII binding to each structure ([1]; 10 μM, synovium from patients with osteoarthritis and rheumatoid arthritis): not significantly inhibited
Ki ([1]; Ki values, blood vessels): > 10000 nM
Ki ([1]; Ki values, lining cells): > 10000 nM
Ki ([1]; Ki values, stroma): > 10000 nM
Binding of [125I](Sar1, Ile8) angiotensin II in the presence of antagonist ([1]; blood vessels, OA, total 7.9, nonspecific 2.4): 7.1
Binding of [125I](Sar1, Ile8) angiotensin II in the presence of antagonist ([1]; blood vessels, RA, total 14, nonspecific 2.6): 12
Binding of [125I](Sar1, Ile8) angiotensin II in the presence of antagonist ([1]; lining cells, OA, total 3.6, nonspecific 1.6): 3.8
Binding of [125I](Sar1, Ile8) angiotensin II in the presence of antagonist ([1]; lining cells, RA, total 5.7, nonspecific 1.7): 5.5
Binding of [125I](Sar1, Ile8) angiotensin II in the presence of antagonist ([1]; stroma, OA, total 2.4, nonspecific 1.5): 2.2
Binding of [125I](Sar1, Ile8) angiotensin II in the presence of antagonist ([1]; stroma, RA, total 3.0, nonspecific 1.6): 2.9
